Experimental data as given in patent US20260125374A1, “PI3K-ALPHA INHIBITORS AND METHODS OF MAKING AND USING THE SAME” (Relay Therapeutics, Inc., priority 2021, published 2026).
Values after ≈ are worked out from the molar mass of the structure shown. Where two headings read alike, the source gives them in different places.

Assays:
[1] = Solubility study at 37° C. (buffer, water, bio-relevant media, MeOH/DCM); format: physicochemical
Description: In addition, residual solids were checked by chiral HPLC to confirm whether racemization occurs.
Accurate 4 mg of I-1 Form A, 5.13 mg of I-3 Form A, 4.63 mg of I-4 Form A was weighed into a 8 mL glass vial, respectively. 2 mL of solubility medium was added. The salt amount used is equivalent to 4 mg anhydrous free form. Obtained suspensions/solutions were stirred at 37° C. at 400 rpm for 2 hours and 24 hours and then centrifuged at 37° C. at 14,000 rpm for 5 min. Supernatants were analyzed by UPLC and PH meter for solubility and pH value, respectively. Residual solids (wet cakes) were characterized by XRPD to determine physical form and then analyzed by HPLC for chiral purity.

Hygroscopicity by DVS = format: physicochemical; settings: for 1st Desorp. (%) / 1st Sorp. (%) / 2nd Desorp. (%) / 2nd Sorp. (%): DVS 25° C.
Description: • Method 1 (for I-1 Form A and I-3 Form A) • Instrument Intrinsic, Advantage or Adventure • Total gas flow 200 sccm • Oven temperature 25° C. • Solvent Water • Method Cycle: 40-0-95-0-40% RH • Stage Step: 10% • Equilibrium: 0.002 dm/dt (%/min) • Minimum dm/dt stability duration: 60 min • Maximum dm/dt stage time: 360 min • Method 2 (for I-4 Form A) • Instrument Intrinsic, Advantage or Adventure • Total gas flow 200 sccm • Oven temperature 25° C. • Solvent Water • Method Cycle: 40-95-0-95-40% RH • Stage Step: 10% • Equilibrium: 0.002 dm/dt (%/min) • Minimum dm/dt stability duration: 60 min • Maximum dm/dt stage time: 360 min
I-1 Form A is hygroscopic. It absorbs about 5.5% water by weight from 40% RH to 95% RH. […] It absorbs about 40% water by weight from 40% RH to 95% RH. Form changed after the DVS test. […] It starts to absorb water when RH>40% and potential hydrate form generates at high humidity based on DVS data. The sorption and desorption are reversible.
Water sorption and desorption behavior of I-1 Form A, I-3 Form A, and I-4 Form A was investigated by DVS at 25° C. with a cycle of 40-0-95-0-40% RH, dm/dt 0.002, min. equilibration time 60 min and max. equilibration time 360 min. XRPD was measured after the DVS test to determine form change.

[2] = FaSSIF-V1, pH 6.5, 2 hours, listed as I-1 Form A
[3] = FaSSIF-V1, pH 6.5, 24 hours, listed as I-1 Form A
[4] = FeSSIF-V1, pH 5.0, 24 hours, listed as I-1 Form A
[5] = SGF, pH 2.0, 24 hours, listed as I-1 Form A
[6] = Water, 24 hours, listed as I-1 Form A
[7] = pH 2, HCl, 24 hours, listed as I-1 Form A

N#Cc1c(-c2cc(NC(=O)c3cc(F)cc(C(F)(F)F)c3)c3c(c2)C(=O)N[C@H]3c2cc(F)ccc2Cl)ccc2ncnn12 [Compound I-1, (R)-N-(3-(2-chloro-5-fluorophenyl)-6-(5-cyano-[1,2,4]triazolo[1,5-a]pyridin-6-yl)-1-oxoisoindolin-4-yl)-3-fluoro-5-(trifluoromethyl)benzamide]
Chiral purity [1, 2]: purity: 97.7%) | Solubility [1, 2]: 4.5 μg/mL(chiral | Chiral purity ([1]; FaSSIF-V1, pH 6.5, 24 hours): (chiral purity: 97.7%) | Chiral purity (solids) [1, 3]: 98.9%) | Solubility [1, 3]: 11.9 µg/mL (≈ 19.5 µM) | pH of supernatant [1, 3]: 6.45 | Solubility ([1]; FeSSIF-V1, pH 5.0, 2 hours, listed as I-1 Form A): 20.5 µg/mL (≈ 33.7 µM) | Chiral purity (solids) [1, 4]: 85.7%) | Solubility [1, 4]: 40.6 µg/mL (≈ 66.7 µM) | pH of supernatant [1, 4]: 4.87 | solubility at 2 h ([1]; MeOH/DCM (1:2, v/v), 37 °C, organic solvent or mixture, thermodynamic from solid, MeOH/DCM (1:2, v/v), 2 hours): > 145000 µg/mL | solubility at 24 h ([1]; MeOH/DCM (1:2, v/v), 37 °C, organic solvent or mixture, thermodynamic from solid, MeOH/DCM (1:2, v/v), 24 hours): > 145000 µg/mL | Solubility ([1]; MeOH/DCM (1:2, v/v), 37 °C, organic solvent or mixture, thermodynamic from solid, read-out: solubility in MeOH/DCM (1:2, v/v)): > 145000 µg/mL | Solubility ([1]; SGF, pH 2.0, 2 hours, listed as I-1 Form A): 11.2 µg/mL (≈ 18.4 µM) | Chiral purity (solids) [1, 5]: 98.9%) | Solubility [1, 5]: 6.4 µg/mL (≈ 10.5 µM) | pH of supernatant [1, 5]: 2.04 | Solubility ([1]; Water, 2 hours, LOQ: 0.5 μg/mL): <LOQ | Solubility ([1]; Water, 24 hours, LOQ: 0.5 μg/mL): LOQ | Chiral purity (solids) [1, 6]: 98.9%) | pH of supernatant [1, 6]: 7.50 | Solubility ([1]; pH 2, HCl, 2 hours, LOQ: 0.5 μg/mL): <LOQ | Solubility ([1]; pH 2, HCl, 24 hours, LOQ: 0.5 μg/mL): LOQ | Chiral purity (solids) [1, 7]: 98.9%) | pH of supernatant [1, 7]: 2.03 | Solubility ([1]; pH 2.0 HCl buffer solution, 37 °C, pH 2, aqueous buffer, thermodynamic from solid, solubility in pH 2 HCl buffer solution, 2 h and 24 h, LOQ=0.5 μg/mL): < 0.5 µg/mL | Solubility ([1]; water, 37 °C, water, thermodynamic from solid, 2 h and 24 h, LOQ=0.5 μg/mL, read-out: solubility in pure water): < 0.5 µg/mL | 1st Desorp. (%) (Hygroscopicity by DVS; 0% RH, listed as I-1 Form A): 0.17% | 1st Sorp. (%) (Hygroscopicity by DVS; 0% RH, listed as I-1 Form A): 0.17% | 2nd Desorp. (%) (Hygroscopicity by DVS; 0% RH, listed as I-1 Form A): 0.001% | 2nd Sorp. (%) (Hygroscopicity by DVS; 0% RH, listed as I-1 Form A): 0.001% | 2nd Desorp. (%) (Hygroscopicity by DVS; 10% RH): 0.11% | 1st Desorp. (%) (Hygroscopicity by DVS; 10% RH, listed as I-1 Form A): 0.25% | 1st Sorp. (%) (Hygroscopicity by DVS; 10% RH, listed as I-1 Form A): 0.23% | 2nd Sorp. (%) (Hygroscopicity by DVS; 10% RH, listed as I-1 Form A): 0.08% | 1st Desorp. (%) (Hygroscopicity by DVS; 20% RH, listed as I-1 Form A): 0.33% | 1st Sorp. (%) (Hygroscopicity by DVS; 20% RH, listed as I-1 Form A): 0.29% | 2nd Desorp. (%) (Hygroscopicity by DVS; 20% RH, listed as I-1 Form A): 0.21% | 2nd Sorp. (%) (Hygroscopicity by DVS; 20% RH, listed as I-1 Form A): 0.15% | 1st Desorp. (%) (Hygroscopicity by DVS; 30% RH, listed as I-1 Form A): 0.42% | 1st Sorp. (%) (Hygroscopicity by DVS; 30% RH, listed as I-1 Form A): 0.35% | 2nd Desorp. (%) (Hygroscopicity by DVS; 30% RH, listed as I-1 Form A): 0.33% | 2nd Sorp. (%) (Hygroscopicity by DVS; 30% RH, listed as I-1 Form A): 0.22% | 1st Desorp. (%) (Hygroscopicity by DVS; 40% RH, listed as I-1 Form A): 0.52% | 1st Sorp. (%) (Hygroscopicity by DVS; 40% RH, listed as I-1 Form A): 0.42% | 2nd Desorp. (%) (Hygroscopicity by DVS; 40% RH, listed as I-1 Form A): 0.51% | 2nd Sorp. (%) (Hygroscopicity by DVS; 40% RH, listed as I-1 Form A): 0.32% | 1st Sorp. (%) (Hygroscopicity by DVS; 50% RH, listed as I-1 Form A): 0.54% | 2nd Desorp. (%) (Hygroscopicity by DVS; 50% RH, listed as I-1 Form A): 0.92% | 1st Sorp. (%) (Hygroscopicity by DVS; 60% RH, listed as I-1 Form A): 0.71% | 2nd Desorp. (%) (Hygroscopicity by DVS; 60% RH, listed as I-1 Form A): 1.30% | 1st Sorp. (%) (Hygroscopicity by DVS; 70% RH, listed as I-1 Form A): 1.02% | 2nd Desorp. (%) (Hygroscopicity by DVS; 70% RH, listed as I-1 Form A): 1.62% | 1st Sorp. (%) (Hygroscopicity by DVS; 80% RH, listed as I-1 Form A): 1.84% | 2nd Desorp. (%) (Hygroscopicity by DVS; 80% RH, listed as I-1 Form A): 2.15% | 1st Sorp. (%) (Hygroscopicity by DVS; 90% RH, listed as I-1 Form A): 3.24% | 2nd Desorp. (%) (Hygroscopicity by DVS; 90% RH, listed as I-1 Form A): 3.56% | 1st Sorp. (%) (Hygroscopicity by DVS; 95% RH, listed as I-1 Form A): 5.90% | 2nd Desorp. (%) (Hygroscopicity by DVS; 95% RH, listed as I-1 Form A): 5.90% | hygroscopicity (Hygroscopicity by DVS; DVS at 25° C., listed as I-1 Form A): hygroscopic | water absorbed (Hygroscopicity by DVS; from 40% RH to 95% RH, 25° C., listed as I-1 Form A): about 5.5 % water by weight | form after the DVS test (XRPD) (Hygroscopicity by DVS; listed as I-1 Form A): no form and crystallinity change
